Reference: patent US6383814B1, “Cationic amphiphiles for intracellular delivery of therapeutic molecules” (Genzyme Corporation, priority 1994, dated 2002)

What was measured:
[1] = Transacylation reaction of amphiphile with co-lipid DOPE on co-storage; type: physicochemical
Excerpt: Although heretofore unrecognized in the art, it has been determined also that certain co-lipids may react chemically with certain types of cationic amphiphiles under conditions of co-storage, there resulting new molecular species. Generation of such new species is believed to occur via mechanisms such as transacylation. In this regard, see FIG. 4 which depicts a transacylation reaction involving spermine cholesterol carbamate (No.67) and DOPE, there resulting lyso PE species and multiple forms of particular acyl-cationic amphiphile (designated No. 80).
It is expected that these phenomena would also apply to lyophilized amphiphile/DOPE preparations.
Accordingly, it is highly preferred to maintain such amphiphile/DOPE preparations at very cold temperatures, such as −70 degrees C.

[2] = test system: lungs of mice; test: CAT assay, parts B and C: intra-nasal, pCF1/CAT or pCF2/CAT vectors; conditions: mouse
Excerpt: That the novel amphiphiles of the invention are an important contribution to the art is immediately seen by comparing their performance—as in vivo transfection enhancers—to that of closely related cationic amphiphiles that lack the novel T-shape. It has been determined that spermidine cholesterol carbamate provides a much greater level of enhancement than N^1-spermidine cholesteryl carbamate which contains the same number of carbon and nitrogen atoms in its cationic alkylamine component but which is linear and not “T-shaped”. Following generally the procedures of Example 3, part B, and using respectively 6 mM (as nucleotide), 1.5 mM, and 1.5 mM concentrations of DNA, amphiphile and of co-lipid, the transfection enhancement provided by spermidine cholesterol carbamate (amphiphile No.53), in relation to N^1-spermidine cholesteryl carbamate, was determined to be about 30 fold.
Also following the procedures of Example 3, part B, and using respectively 4 mM (as nucleotide), 1 mM, and 2 mM concentrations of DNA, amphiphile and co-lipid, the transfection enhancement provided by spermine cholesterol carbamate (amphiphile No. 67)—in relation to N^1-thermospermine cholesteryl carbamate and N^1-spermine cholesteryl carbamate to which spermine cholesterol carbamate is similarly related—is at least about 30 fold.

[3] = Transgene expression by protonation state of the amphiphile in transfecting composition with DOPE; conditions: amphiphile as free base; with DOPE zwitterion; plasmid DNA sodium salt in water
Excerpt: An additional aspect of the invention concerns the protonation state of the cationic amphiphiles of the invention prior to their contacting plasmid DNA in order to form a therapeutic composition. It is within the practice of the invention to utilize fully protonated, partially protonated, or free base forms of the amphiphiles in order to form such therapeutic compositions. With respect to amphiphile No. 67 (spermine cholesterol carbamate), it has been observed that when providing this amphiphile for a transfecting composition with DOPE (itself provided as a zwitterion), transgene expression was best for the free base, but decreased if the amphiphile was prepared as an acetate salt. […] Under the circumstances described, the plasmid DNA provided for contacting with the amphiphile was prepared (without buffer) as a sodium salt in water.

[4] = test system: lung and heart; test: Intravenous delivery of pCF-1CAT complex, CAT expression in organs; type: in vivo, BALB/c mouse; conditions: for organ distribution of CAT expression: DNA 0.9 mM, i.v. tail vein, 48 h
Description: The reporter plasmid pCF-1CAT (Example 4) was used and was purified to minimize endotoxin (<1 EU/mg pDNA), and also chromosomal DNA contamination (<2%). Amphiphile No. 53 (1:1 with DOPE)/DNA complex was prepared according to the procedures of Example 3. The amphiphile was provided as the free base, the plasmid was prepared as a sodium salt in water, and the DOPE was provided in zwitterionic form.
The animal model was the BALB/c mouse. Females 6-8 weeks old weighing 16-18 g were injected intravenously using the tail vein, using 5 animals per group. The volume of lipid:pDNA complex used was 100 μl in all experiments. Unless noted otherwise, mice were sacrificed 48 h following administration of the complex. Organs were frozen immediately on dry ice to store for subsequent analysis.
Expression of chloramphenicol acetyl transferase (CAT) was quantitated using a radiochemical assay for CAT enzymatic activity. Organs Were weighed and homogenized on ice in a lysis buffer containing protease inhibitors. The lysate was freeze-thawed 3×, centrifuged, and heated to 65° C. to inactivate deacetylases before adding it to a reaction mixture containing ^14C-chloraamphenicol. After an incubation at 37° C., the mixture was extracted with ethyl acetate, concentrated, spotted onto TLC plates and eluted with CHCl3/MeOH. Spots corresponding to the acylated reaction products were quantitated (Betagen) and converted to ng CAT activity using authentic CAT standards.

[5] = test system: Immortalized human cystic fibrosis airway cells (CFT-1); test: SPQ assay of cAMP-stimulated Cl− channel activity after pCMV-CFTR transfection; type: cell-based
Description: Immortalized human cystic fibrosis airway cells (CFT-1, as above) were used.
In preparation for the assay, the cells were grown on glass coverslips until approximately 60% confluent The cells were hen transfected with a complex of spermidine cholesterol carbamate:DOPE (1:1) and a plasmid(pCMV-CFTR) containing a cDNA that encodes wild type human CFTR pCMV-CFTR plasmid is a construct containing the encoding sequence for CFTR and the following regulatory elements, a CMV promoter and enhancer, and an SV40 polyadenylation signal. Additional constructs suitable for the practice of this example include pMT-CFTR, Cheng et al., Cell, 63,827-834 (1990). The complex used was 10.5 μmolar of spermidine cholesterol carbamate (also of DOPE) and 30 μmolar of pCMV-CFTR based on nucleotide.
48 hours after amphiphile-mediated transfection, cells were tested for cAMP-stimulated Cl^− channel activity using the 6-methoxy-N-(3-sulfopropyl)quinolinium (“SPQ”) assay. […] In the assay, cAMP-dependent Cl^− channel activity was assessed using “SPQ” (from Molecular Probes, Eugene, Oreg.), a halide-sensitive fluorophore. Increases in halide permeability results in a more rapid increase in SPQ fluorescence, and the rate of change (rather than the absolute change in fluorescence) is the important variable in assessing Cl^− permeability. […]

[6] = test system: Primary nasal polyp cells from a cystic fibrosis patient (Δ F508); test: cAMP-stimulated transepithelial chloride secretion in modified Ussing chamber after pCMV-CFTR transfection; type: cell-based, human; conditions: 1:1 with DOPE; 42 μmolar amphiphile, 60 μmolar pCMV-CFTR; forskolin and IBMX
Description: Primary (non-immortalized) nasal polyp cells from an adult cystic fibrosis patient (homozygous for the Δ F508mutation) were grown on collagen-coated permeable filter supports (Millicells) to form a polarized and confluent epithelial monolayer. Once the monolayer was electrically tight (about 5 to 7 days post seeding, and as indicated by the development of resistance across the cell sheet), the apical surface can be exposed to formulations of cationic amphiphile: DNA complex.
In this case, the amphiphile (spermidine cholesterol carbamate) was provided as a 1:1 (by mole) mixture with DOPE, and this mixture was then complexed with pCMV-CFTR plasmid vector (a construct encoding wild type human cystic fibrosis transmembrane conductance regulator protein, see above). Concentrations in the final mixture were 42 μmolar of spermidine cholesterol carbamate (and also of DOPE) and 60 μmolar (based on morality in nucleotides) of the plasmid expression vector.
Expression of CFTR was determined by measuring cAMP-stimulated transepithelial chloride secretion in a modified Ussing chamber, Zabner et al., Nature Genetics, 6, 75-83 […]. The mucosal side of the epithelium was bathed in Ringer's bicarbonate solution bubbled with 95% O2 and 5% CO2. […] Transepithelial voltage was clamped to 0 m V and short circuit current was recorded. […]

[7] = test system: lungs of balb/c mice
Description: This assay was used to assess the ability of the cationic amphiphiles of the invention to transfect cells in vivo from live specimens. In the assay, the lungs of balb/c mice were instilled intra-nasally (the procedure can also be performed trans-tracheally) with 100 μl of cationic amphiphile:DNA complex, which was allowed to form during a 15-minute period prior to administration according to the following procedure. The amphiphile (premixed with co-lipid, see below) was hydrated in water for 10 minutes, a period sufficient to yield a suspension at twice the final concentration required. This was vortexed for two minutes and aliquoted to provide 55 microliter quantities for each mouse to be instilled. Similarly, DNA encoding the reporter (CAT) gene was diluted with water to a concentration twice the required final concentration, and then aliquoted at 55 microliters for each mouse to be instilled. The lipid was gently combined with the DNA (in a polystyrene tube), and the complex allowed to form for 15 minutes before the mice were instilled therewith.
The plasmid used (pCMVHI-CAT, see Example 4) provides an encoding DNA for chloramphenicol transferase enzyme. Specifics on the amphiphile:DNA complexes are provided below.
Two days following transfection, mice were sacrificed, and the lungs and trachea removed, weighed, and homogenized in a buffer solution (250 mM Tris, pH 7.8, 5 mM EDTA). The homogenate was darifed by centrifugation, and the deacetylases therein were inactivated by heat treatment at 70° C. for 10 minutes. Lysate was incubated overnight with acetyl coenzyme A and C^14-chloramphenicol. CAT enzyme activity was then visualized by thin layer chromatography (“TLC”) following an ethyl acetate extraction.
The presence of the enzyme CAT will cause an acetyl group to be transferred from acetyl coenzyme A to C^14-chloramphenicol. The acetylated/radiolabeled chloramphenicol migrates faster on a TLC plate and thus its presence can be detected.
With respect to the comparison provided by FIG. 10, the following conditions are of note. The transfection solution for spermidine cholesterol carbamate contained 6 mM DNA measured as concentration of nucleotide, and 1.5 mM of cationic amphiphile. […] For transfection with DC-chol, the molar ratio of DC-chol to DOPE was 3:2, and the concentrations of cationic amphiphile and of DNA (as nucleotide) were 1.3 mM and 0.9 mM, respectively. For transfection with DMRIE, the molar ratio of DMRIE to DOPE was 1:1 and the concentrations of cationic amphiphile and of DNA were 1.7 mM and 12 mM, respectively.

[8] = Excipient selection against amphiphile/DNA aggregate formation; type: physicochemical; conditions: particularly as DNA concentration is increased
Excerpt: Additionally, the therapeutic compositions of the invention can in general be formulated with excipients (such as the carbohydrates lactose, trehalose, sucrose, mannitol, maltose or galactose) and may also be lyophilized (and then rehydrated) in the presence of such excipients prior to use. Conditions of optimized formulation for each amphiphile of the invention are capable of determination by those skilled in the pharmaceutical art. […] Addition of such excipients maintains the consistency of lyophilized pharmaceutical compositions during storage, and prevent difficulties such as aggregation, or insolubity, that may likely occur upon rehydration from the lyophilized state.

[9] = test system: CFT-1 cell line (human cystic fibrosis bronchial epithelial cells); test: Cell transfection assay (β-galactosidase expression); type: cell-based; conditions: 1:1 mixture with DOPE, pCMVβ
Description: Following combination of the solutions, a thin film was produced by removing chloroform from the mixture by evaporation under reduced pressure (20 mm Hg). The film was further dried under vacuum (1 mm Hg) for 24 hours.
The resulting suspension was then diluted with 4 ml of water to yield a solution that is 670 μM in cationic amphiphile and 670 μM in neutral colipid.
For preparation of the transfecting solution, DNA encoding for β-galactosidase (pCMVβ, ClonTech., Palo Alto, Calif.) was dissolved in OptiMEM culture medium (Gibco/BRL No. 31885-013).
The resulting 335 μM solutions were then serially diluted 7 times to generate 8 separate amphiphile-containing solutions having concentrations ranging from 335 μM to 2.63 μM, with each resultant solution having a volume of 165 μl. Thus, 64 solutions were prepared in all, there being 8 wells each of 8 different concentrations of amphiphile/DOPE.
Independently, DNA solutions (165μl, 960 μM) were pipetted into 8 wells containing OptiMEM (165 μl), and the resulting 480 μM solutions were then serially diluted 7 times to generate 8 separate 165 μl solutions from each well, with the concentrations of DNA in the wells ranging from 480 μM to 3.75 μM. […]

[10] = 1.0-1.5 mM amphiphile, cholesterol 1:1, DNA 4.0-6.0 mM, intra-nasal

CC(C)CCCC(C)C1CCC2C3CC=C4CC(OC(=O)N(CCCN)CCCCNCCCN)CCC4(C)C3CCC12C (stereo not drawn) [amphiphile No. 67, N^4-spermine cholesteryl carbamate]
transacylation with DOPE ([1]; amphiphile as mono, di, or tri acetate salt): slow transacylations
transacylation with DOPE ([1]; aqueous solution where bilayer-containing structures such as liposomes can form): will permit transacylation
transacylation with DOPE ([1]; mixture of amphiphile and DOPE in chloroform solvent): does not appear to participate
activity of amphiphile (in vivo transfection) [2]: highly active
in vivo transfection in comparison with non T-shaped amphiphiles having equivalent cationic alkylamine structure [2]: superior transfectants
transgene expression [3]: best

CC(C)CCC[C@@H](C)[C@H]1CC[C@H]2[C@@H]3CC=C4C[C@@H](OC(=O)N(CCCCNCCCN)CCCNCCCN)CC[C@]4(C)[C@H]3CC[C@]12C [amphiphile No. 75, N^1,N^8-Bis(3-aminopropyl)-N^4-spermidine cholesteryl carbamate]
activity of amphiphile (in vivo transfection) [2]: highly active

CC(C)CCCC(C)C1CCC2C3CC=C4CC(OC(=O)N(CCCN)CCCCN)CCC4(C)C3CCC12C (stereo not drawn) [amphiphile No. 53, N^4-spermidine cholesteryl carbamate]
organ distribution of CAT expression ([4]; amphiphile/DNA molar ratio less than about 0.5): strongly weighted toward the lung
organ distribution of CAT expression ([4]; amphiphile/DNA ratio of 1.25): substantial expression was found in the heart
targeting to the lung over a range of amphiphile/DNA ratios ([4]; constant DNA concentration 0.9 mM, i.v.): remained relatively constant
transferring CFTR-encoding plasmid into immortalized CF airway cells [5]: effective
cAMP-stimulated current [6]: 0.5 to 2.5 μampere/cm^2
enhancement of in vivo transfection (ng CAT activity per 100 mg tissue) in relation to DMRIE and DC-Chol ([7]; 1.5 mM amphiphile, 1:1 DOPE, 6 mM DNA (nucleotide), intra-nasal, 2 days): ≥ 20 fold
transfection efficiency (ng CAT/100 mg tissue) with cholesterol as co-lipid, compared with DOPE as co-lipid [7, 10]: less effective
transfection with cholesterol as co-lipid, compared with DC-Chol/DOPE [7, 10]: substantially more effective
toxicity to the target cells ([7]; about 0.75 mM amphiphile and 3.0 mM plasmid, versus the optimal 1.5 mM/6 mM): less toxic
excipient preferred to prevent formation of amphiphile/DNA aggregates [8]: sucrose is preferred over mannitol
transfection efficiency improved by a factor, relative to DMRIE:DOPE (1:1) [9]: about 5
activity of amphiphile (in vivo transfection) [2]: highly active
in vivo transfection in comparison with non T-shaped amphiphiles having equivalent cationic alkylamine structure [2]: superior transfectants

1,2-dimyristyloxypropyl-3-dimethyl-hydroxyethyl ammonium bromide [DMRIE, reference compound]
CAT activity in lung ([7]; 1:1 molar with DOPE, 1.7 mM DMRIE, 1.7 mM DOPE, 1.2 mM plasmid DNA as nucleotide): 1 to 2 ng activity per 100 mg lung tissue
